Measurements reported in PubChem BioAssay AID2060335 (Molecular Pharmacology Branch, DTP, NCI, 2025).

Tested on: DU-145 multicell spheroids with HUVEC/MSC, viability
Assay: Anticancer human tumor DU-145 cell line growth inhibition [IpAb];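 further: spheroids exposed to agents for seven days before measurement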;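 on viability, T/C: percent of DMSO vehicle control viability so 100% = untreated level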
Details: for IC50: curve of first compound; for viability, T/C: stronger effect = lower value
Description: Combinatorial screen of targeted agents with ipatasertib and abemaciclib in multi-cell type tumor spheroids
A high-throughput screen of multi-cell type tumor spheroids was designed to identify active combinations of targeted small molecules and ipatasertib or abemaciclib. Complex spheroids include a stromal component modeled by human endothelial cells (HUVEC) and fibroblasts modeled by human mesenchymal stem cells (MSCs). The concentration ranges selected for each drug and investigational agent were based upon clinically achievable concentrations if the clinical Cmax of the agent was known.
Compounds. The drugs and investigational agents: ipatasertib (NSC767898), abemaciclib(NSC768073), selumetinib (NSC741078), trametinib (758246), adavosertib (NSC754352), everolimus (NSC733504), sapanisertib (NSC764658), vemurafenib (NSC761431), venetoclax (NSC766270), copanlisib (NSC809693), apelisib (NSC765974), palbociblib (NSC758247), vemurafenib (NSC761431), dabrafenib (NSC764134), ravoxertinib (NSC781343), BMS-387032 (NSC767048), sotorasib (NSC818433), talazoparib (NSC767125) and afursertib (NSC778305), were obtained from the National Cancer Institute (NCI) Developmental Therapeutics Program Chemical Repository. The FDA-approved anticancer drug set is available from the NCI Developmental Therapeutics Program. […] The stock solutions were prepared in dimethyl sulfoxide (DMSO, Sigma-Aldrich, St. Louis, MO, cat. D2650) at 800-fold the tested concentration and stored at -70 degrees C prior to their use. All drugs and investigational agents were tested over a range starting from a high concentration at or near the clinical Cmax and decreasing in half-log increments. If the clinical Cmax for an agent had not been determined, the highest concentration tested was 10 microM.
NCI60 Cell Culture. NCI60 cell lines were obtained from the NCI Developmental Therapeutics Program Tumor Repository. For each lot of cells, the Repository performed Applied Biosystems AmpFLSTR Identifiler testing with PCR amplification to confirm consistency with the published Identifier STR profile for each cell line. Cells were kept in continuous culture for no more than 20 passages. The optimal seeding densities for each of the cell lines at each time point assessed were determined prior to performing the concentration response studies. Briefly, the NCI60 human tumor lines were grown as monolayers in RPMI 1640 medium supplemented with 10% FBS and 2 mmol/L L-glutamine.
An additional 9 lines were from the NCI60 cell line panel including MDA-MB-231 breast carcinoma, MDA-MB-468 breast carcinoma, MCF7 breast carcinoma, Hs578T breast carcinoma, MALME-3M melanoma, SK-MEL-2 melanoma, SK-OV-3 ovarian carcinoma, DU-145 prostate carcinoma, PC-3 prostate carcinoma, all cell lines along with major genetic alterations are listed on Table 2. Pooled donor human umbilical vein endothelial cells (HUVEC, Lonza, cat. CC-2519) and human mesenchymal stem cells (hMSC, Lonza, cat. PT-2501) were purchased from Lonza (Walkersville, MD).
PDMR cell lines were grown in complete medium (DC medium): Dulbecco's modified Eagle's medium (DMEM)/F12 supplemented with 5% fetal bovine serum (FBS), 2 mM L-glutamine, 100 U/mL penicillin and 100 µg/ml streptomycin, 0.4 µg/ml hydrocortisone, 10 ng/ml epidermal growth factor (EGF) recombinant human protein, 24 µg/mL adenine, and 0.1 mg/mL primocin. During culture from frozen stock vials, PDMR cells were cultured in the same medium containing 10 µM Y-27632 (see Table 3). The PDCs were cultured in complete DMEM/F12 media without 10 microM Y-27632 dihydrochloride for at least two passages prior to the screen. The pooled donor HUVEC and hMSC were cultured in endothelial cell growth medium 2 (PromoCell, Heidelberg, Germany, cat. C-22011) and mesenchymal stem cell growth medium 2 (PromoCell, cat. C-28009), respectively. For all experiments, HUVEC and hMSC were used at passages </=5.
[…]

[1] = second compound 0.1 µM, first compound 0.0316 µM
[2] = second compound 0.1 µM, first compound 0.1 µM
[3] = second compound 0.1 µM, first compound 0.316 µM
[4] = second compound 0.1 µM, first compound 1 µM
[5] = second compound 0.316 µM, first compound 0.0316 µM
[6] = second compound 0.316 µM, first compound 0.1 µM
[7] = second compound 0.316 µM, first compound 0.316 µM
[8] = second compound 0.316 µM, first compound 1 µM
[9] = second compound 1 µM, first compound 0.0316 µM
[10] = second compound 1 µM, first compound 0.1 µM
[11] = second compound 1 µM, first compound 0.316 µM
[12] = second compound 1 µM, first compound 1 µM
[13] = second compound 3.16 µM, first compound 0.0316 µM
[14] = second compound 3.16 µM, first compound 0.1 µM
[15] = second compound 3.16 µM, first compound 0.316 µM
[16] = second compound 3.16 µM, first compound 1 µM
[17] = second compound 10 µM, first compound 0.0316 µM
[18] = second compound 10 µM, first compound 0.1 µM
[19] = second compound 10 µM, first compound 0.316 µM
[20] = second compound 10 µM, first compound 1 µM

Structure (SMILES) | IC50 (second compound 0.1 µM) [nM] | IC50 (second compound 0.316 µM) [nM] | IC50 (second compound 1 µM) [nM] | IC50 (second compound 3.16 µM) [nM] | IC50 (second compound 10 µM) [nM] | viability, T/C [1] [%] | viability, T/C [2] [%] | viability, T/C [3] [%] | viability, T/C [4] [%] | viability, T/C [5] [%] | viability, T/C [6] [%] | viability, T/C [7] [%] | viability, T/C [8] [%] | viability, T/C [9] [%] | viability, T/C [10] [%] | viability, T/C [11] [%] | viability, T/C [12] [%] | viability, T/C [13] [%] | viability, T/C [14] [%] | viability, T/C [15] [%] | other results
COc1c(OCCCN2CCOCC2)ccc2c3n(c(=NC(=O)c4cnc(N)nc4)nc12)CCN3 + CC(C)NCC(C(=O)N1CCN(c2ncnc3c2C(C)CC3O)CC1)c1ccc(Cl)cc1 | 6.79 | < 3.16 | < 3.16 | < 3.16 | < 3.16 | 27.6 | 12.7 | 9.75 | 10.5 | 18.8 | 11.6 | 9.1 | 11.2 | 14.8 | 10 | 8.83 | 10.2 | 12.1 | 9.46 | 8.26 | viability, T/C (second compound 0.1 µM, first compound 0.00316 µM): 65.3%; viability, T/C (second compound 0.1 µM, first compound 0.01 µM): 41.2%; viability, T/C (second compound 0.316 µM, first compound 0.00316 µM): 41.5%; viability, T/C (second compound 0.316 µM, first compound 0.01 µM): 28.2%; viability, T/C (second compound 1 µM, first compound 0.00316 µM): 25.4%; viability, T/C (second compound 1 µM, first compound 0.01 µM): 22%; viability, T/C (second compound 3.16 µM, first compound 0.00316 µM): 18.7%; viability, T/C (second compound 3.16 µM, first compound 0.01 µM): 14.6%; viability, T/C [16]: 9.07%; viability, T/C (second compound 10 µM, first compound 0.00316 µM): 14.6%; viability, T/C (second compound 10 µM, first compound 0.01 µM): 12.5%; viability, T/C [17]: 10.5%; viability, T/C [18]: 8.52%; viability, T/C [19]: 7.9%; viability, T/C [20]: 9.09%
C=CCn1c(=O)c2cnc(Nc3ccc(N4CCN(C)CC4)cc3)nc2n1-c1cccc(C(C)(C)O)n1 + CC(C)NCC(C(=O)N1CCN(c2ncnc3c2C(C)CC3O)CC1)c1ccc(Cl)cc1 | 82.7 | < 31.6 | < 31.6 | < 31.6 | < 31.6 | 71 | 47.1 | 26.5 | 23.9 | 44.6 | 36.7 | 19.3 | 18.8 | 32.7 | 26.6 | 13.3 | 15.1 | 23 | 16.1 | 10 | viability, T/C (second compound 0.1 µM, first compound 3.16 µM): 17.5%; viability, T/C (second compound 0.1 µM, first compound 10 µM): 13.7%; viability, T/C (second compound 0.316 µM, first compound 3.16 µM): 15.8%; viability, T/C (second compound 0.316 µM, first compound 10 µM): 12.9%; viability, T/C (second compound 1 µM, first compound 3.16 µM): 14.3%; viability, T/C (second compound 1 µM, first compound 10 µM): 12.6%; viability, T/C [16]: 12%; viability, T/C (second compound 3.16 µM, first compound 3.16 µM): 11.8%; viability, T/C (second compound 3.16 µM, first compound 10 µM): 10.4%; viability, T/C [17]: 16.9%; viability, T/C [18]: 14%; viability, T/C [19]: 8.4%; viability, T/C [20]: 10.6%; viability, T/C (second compound 10 µM, first compound 3.16 µM): 9.3%; viability, T/C (second compound 10 µM, first compound 10 µM): 9.33%
